Experimental data reported in publication PMC8745332, “Synthesis, Molecular Docking and Biological Characterization of Pyrazine Linked 2-Aminobenzamides as New Class I Selective Histone Deacetylase (HDAC) Inhibitors with Anti-Leukemic Activity” (International Journal of Molecular Sciences, 2021).
Read-outs that look alike come from different tables or passages of the source.

Key:
human HDAC7 = molecular target: T1, human HDAC7 (Homo sapiens, UniProt Q8WUI4); assay: HDAC7 dose response, substrate Abz-SRGGK(thio-TFA)FFRR-NH2; assay type: biochemical
T1 construct: made in house
T1 sequence (Q8WUI4 1-952): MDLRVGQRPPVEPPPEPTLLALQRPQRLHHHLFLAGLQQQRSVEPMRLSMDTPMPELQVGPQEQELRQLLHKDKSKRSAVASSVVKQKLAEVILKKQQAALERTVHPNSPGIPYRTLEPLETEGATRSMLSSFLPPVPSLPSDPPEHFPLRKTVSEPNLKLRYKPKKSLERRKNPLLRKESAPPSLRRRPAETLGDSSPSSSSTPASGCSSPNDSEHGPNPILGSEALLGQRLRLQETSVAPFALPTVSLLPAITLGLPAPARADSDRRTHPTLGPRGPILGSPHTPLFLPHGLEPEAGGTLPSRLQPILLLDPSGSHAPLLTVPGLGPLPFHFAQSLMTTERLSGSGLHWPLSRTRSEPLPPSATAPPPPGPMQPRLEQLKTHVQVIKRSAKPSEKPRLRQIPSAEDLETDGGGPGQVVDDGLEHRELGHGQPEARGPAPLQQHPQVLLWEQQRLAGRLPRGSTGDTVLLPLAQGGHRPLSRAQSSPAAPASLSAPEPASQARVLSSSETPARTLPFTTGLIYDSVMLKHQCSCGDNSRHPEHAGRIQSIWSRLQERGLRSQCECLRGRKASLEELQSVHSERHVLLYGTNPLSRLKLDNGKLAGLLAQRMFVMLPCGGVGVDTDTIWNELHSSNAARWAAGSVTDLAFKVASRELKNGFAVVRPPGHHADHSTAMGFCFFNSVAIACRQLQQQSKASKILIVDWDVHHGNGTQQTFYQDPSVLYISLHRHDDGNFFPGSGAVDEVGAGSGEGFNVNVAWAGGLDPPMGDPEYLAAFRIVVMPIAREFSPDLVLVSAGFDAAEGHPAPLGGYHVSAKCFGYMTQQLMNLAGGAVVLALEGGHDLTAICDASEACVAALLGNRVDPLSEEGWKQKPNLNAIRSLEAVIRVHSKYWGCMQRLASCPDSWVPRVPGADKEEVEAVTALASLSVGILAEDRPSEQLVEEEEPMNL
Description: Recombinant human HDAC1, HDAC2, and HDAC3/NCOR1 were purchased from ENZO Life Sciences AG (Lausen, CH). Recombinant human HDAC 4, HDAC5, HDAC7, HDAC9 and HDAC11 were produced by Barinka lab in Prague, as described before. Recombinant human HDAC8 was produced by Romier et al. (IGBMC, Univ. Strasbourg), as described in [55].
The determination of dose response curves for HDAC4, 5, 7 and 9 was performed as previously described with compound 4 as substrate (Abz-SRGGK(thio-TFA)FFRR-NH2). The substrate concentration was 50 µM and the enzyme concentration was 10 nM for HDAC4 and HDAC5, 5 nM for HDAC7 and 20 nM for HDAC9. HDAC11 inhibition assay was performed as described before. The fluorescence intensity was recorded with an Envision 2104 Multilabel Plate Reader (PerkinElmer, Waltham, MA) with an excitation wavelength of 330 ± 75 nm and an emission wavelength of 430 ± 8 nm.

HDAC6 = molecular target: T2, HDAC6 (Homo sapiens, UniProt Q9UBN7); assay: HDAC6 inhibition (HDAC subtype panel); assay type: biochemical
T2 construct: made in house
T2 sequence (Q9UBN7 1-1215): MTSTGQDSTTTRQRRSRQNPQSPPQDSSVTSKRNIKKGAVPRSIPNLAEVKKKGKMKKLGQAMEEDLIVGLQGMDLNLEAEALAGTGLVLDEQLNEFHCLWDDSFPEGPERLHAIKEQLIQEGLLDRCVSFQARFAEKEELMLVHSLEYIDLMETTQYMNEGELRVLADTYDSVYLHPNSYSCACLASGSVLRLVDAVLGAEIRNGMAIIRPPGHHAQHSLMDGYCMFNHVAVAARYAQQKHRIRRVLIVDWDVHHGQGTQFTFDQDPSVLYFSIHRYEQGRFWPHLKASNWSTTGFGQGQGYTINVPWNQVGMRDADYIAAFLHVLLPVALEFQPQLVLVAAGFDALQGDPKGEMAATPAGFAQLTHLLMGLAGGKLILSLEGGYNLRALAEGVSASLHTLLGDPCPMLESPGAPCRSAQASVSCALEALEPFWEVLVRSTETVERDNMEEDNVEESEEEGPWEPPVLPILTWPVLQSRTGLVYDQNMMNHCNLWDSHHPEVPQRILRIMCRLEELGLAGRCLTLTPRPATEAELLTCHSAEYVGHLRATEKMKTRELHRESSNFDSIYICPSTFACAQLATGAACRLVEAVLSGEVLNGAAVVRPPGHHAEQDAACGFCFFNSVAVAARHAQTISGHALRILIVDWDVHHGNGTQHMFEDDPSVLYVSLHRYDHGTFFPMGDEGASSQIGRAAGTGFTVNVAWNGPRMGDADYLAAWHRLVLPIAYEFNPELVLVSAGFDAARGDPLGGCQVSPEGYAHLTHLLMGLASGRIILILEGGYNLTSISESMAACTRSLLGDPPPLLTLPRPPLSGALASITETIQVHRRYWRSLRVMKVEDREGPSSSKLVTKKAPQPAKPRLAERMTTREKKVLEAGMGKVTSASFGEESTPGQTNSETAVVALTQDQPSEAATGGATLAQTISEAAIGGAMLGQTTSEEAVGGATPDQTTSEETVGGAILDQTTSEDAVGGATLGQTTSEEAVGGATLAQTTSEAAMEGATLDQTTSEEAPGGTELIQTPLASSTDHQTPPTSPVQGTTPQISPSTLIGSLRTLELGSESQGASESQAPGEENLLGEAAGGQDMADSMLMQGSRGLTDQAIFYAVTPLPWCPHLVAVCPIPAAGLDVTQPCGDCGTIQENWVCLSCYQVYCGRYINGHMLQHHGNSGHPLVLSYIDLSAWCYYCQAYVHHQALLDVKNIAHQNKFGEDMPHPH

MOLM-13 cells = assay: Apoptosis in MOLM-13 cells, annexin-V/PI flow cytometry; assay type: cell-based, human; conditions: for IC50: Homo sapiens
Description: We measured the induction of early (increased exposure of phosphatidylserine on the cell surface and therefore positive staining for annexin-V-FITC) and late apoptosis (positivity for annexin-V and accumulation of propidium iodide, PI) by flow cytometry.
All leukemic cells were kept in RPMI-1640 medium supplemented with 10% FBS and 1%penicillin/streptomycin (Sigma-Aldrich, Taufkirchen, Germany) under standard culture conditions at 37 °C and a 5% CO2 humidified atmosphere. Cells were authenticated as mentioned by us.

MV4-11 and MOLM-13 cells = assay: Immunoblot of acetylated histone H3 and cleaved caspase-3; assay type: cell-based, human; conditions: MV4-11 and MOLM-13 cells, 0.25, 0.5, 1 µM, 24 h
Description: (C,D) The same experiments were conducted with MOLM-13 cells. (E) IC50 values were determined for 19f. (F) Immunoblot was done with the stated antibodies and lysates of MV4-11 and MOLM-13 cells that were incubated with the HDACi for 24 h. […] Graphs show representatives of three independent experiments.

| SMILES | IC50 (human HDAC7) [µM] | IC50 (HDAC6) [µM] | IC50 (MOLM-13 cells; MOLM-13, 48 h, read-out: IC50 (apoptosis, annexin-V/PI)) [µM] | IC50 (MOLM-13 cells; MOLM-13 cells, 24 h, annexin-V/PI, read-out: IC50 for apoptosis induction) [µM] | IC50 (MOLM-13 cells; MOLM-13 cells, after 48 h, read-out: IC50 values for growth inhibition) [µM] | fold higher potency than MS-275 (apoptosis induction) (MOLM-13 cells; MOLM-13 cells, versus MS-275) [fold] | accumulation of acetylated histone H3 (immunoblot) (MV4-11 and MOLM-13 cells) |
| --- | --- | --- | --- | --- | --- | --- | --- |
| Cn1cc(CCN2CCN(c3cnc(C(=O)Nc4cc(-c5cccs5)ccc4N)cn3)CC2)c2ccccc21 [21a, N-(2-Amino-5-(thiophen-2-yl)phenyl)-5-(4-(2-(1-methyl-1H-indol-3-yl)ethyl)piperazin-1-yl)pyrazine-2-carboxamide] | > 20 | > 20 | – | – | – | – | – |
| Nc1ccccc1NC(=O)c1cnc(N2CCN(Cc3c[nH]c4ccccc34)CC2)cn1 [19f, 5-(4-((1H-indol-3-yl)methyl)piperazin-1-yl)-N-(2-aminophenyl)pyrazine-2-carboxamide] | > 20 | > 20 | 0.318 | 0.397 | ~0.3 | 4 | triggered the expected accumulation of acetylated histone H3 dose-dependently and more potently than MS-275 did |
